Test results taken from patent publication US5144059A, “Catecholamine esters” (priority 1989, dated 1992).
Values joined by “and” are separate entries in the source; they are usually repeats but may differ in a detail not shown here. Equal entries are not always repeated.

Columns and labels:
[1] = system: Intraocular pressure in rabbit; experiment: Intraocular pressure in rabbit after topical application; type: in vivo; conditions: 0.1% solution topical; for Intraocular pressure: individual animal, Hydrochloride; for Intraocular pressure, mean: N=6
[2] = Permeability across excised pig cornea (perfusion method, HPLC); type: in vitro ADME; conditions: for Amount of unchanged product in the receiving compartment (permeability rate): 2.5 mM in donor, GBR pH 7.65, 34-35 °C; for Release of epinephrine inside the eye: conclusion from the excised cornea experiment; for Amount of epinephrine released by 2B223 in the receiving compartment: released by 2B223 (2450 nMoles in donor); for Amount of epinephrine released by 2B852 in the receiving compartment: released by 2B852 (2770 nMoles in donor)
Experimental: Perfusion method: pig corneas have been removed with about 2 mm of sclera and set on a perfusion cell.
The receiving compartment and that of the donor were respectively filled with 6 ml and 1 ml of GBR solution (Glutathione Bicarbonate Ringer's solution) preheated at 35° C.
During the analysis the cells were maintained at a temperature of 34°-35° C. with a thermostat (REACTI-THERM, Pierce). Besides, the solutions in the 2 compartments were maintained under a flow of 95% O2 --5% CO2 mixture.
The GBR solution in the donor compartment was then substituted with 1 ml of GBR solution saturated with O2 --CO2 containing, 2B223 or 2B852 (2.5 mM).
Aliquots of 600 μl were withdrawn from the receiving compartment every 40 minutes for a period of 4 hours and immediately replaced with an equal volume of GBR.
A solution of GBR with diclofenac (0.1%) maintained at the same conditions (temperature 34°-35° C. and gassed with (O2 --CO2) acted as control aliquots from the control were withdrawn at the same times.
The samples and the controls at various times were immediately analyzed by HPLC.
Solutions: Glutathione Bicarbonate Ringer's (GBR), pH 7.65. The GBR solution was prepared in two parts: part I was composed of sodium chloride 12.4 g/l, potassium chloride 0.716 g/l, sodium dihydrogen phosphate monohydrate 0.206 g/l and sodium bicarbonate 4.908 g/l while part II was composed of calcium chloride 0.230 g/l, magnesium chloride 0.318 g/l, glucose 1.8 g/l and oxidized glutathioine 0.184 g/l. Both parts were stored cold and utilized within two weeks.
Equal volumes of part I and II were mixed prior to use.

[3] = system: Ocular Hypertension in Man; experiment: Ocular pressure in patients with non-severe ocular hypertension after instillation; type: in vivo; conditions: one drop 0.1% solution; for Ocular pressure: individual patient, Hydrochloride; for Ocular pressure, mean: N=4
Experimental: 1 drop of a 0.1% solution of 2B223 or 2B852, respectively, was instilled into each eye of 8 patients (males) suffering from non-severe ocular hypertension. Ocular pressure was tested at time 0, and 30, 120, 180 minutes after the ocular instillation. At same times blood pressure and heart rate were also tested.

[4] = applied topically to the eye; stated as known; cited from earlier work

SMILES: CNCC(O)c1ccc(OC(=O)N(C)C)c(OC(=O)c2ccc(C)cc2)c1.Cl (centres unmarked) [2B223, 3-O-(4-Methylbenzoyl)-4-O-(N,N-Dimethylcarbamoyl)adrenaline Hydrochloride]
- Intraocular pressure ([1]; 1 hour): 12 mm Hg and 13 mm Hg and 11 mm Hg
- Intraocular pressure ([1]; 2 hours): 13 mm Hg and 14 mm Hg
- Intraocular pressure ([1]; 4 hours): 14 mm Hg and 15 mm Hg and 13 mm Hg
- Intraocular pressure ([1]; 8 hours): 15 mm Hg and 16 mm Hg and 14 mm Hg
- Intraocular pressure ([1]; time 0 (baseline)): 16 mm Hg and 15 mm Hg and 17 mm Hg
- Intraocular pressure, mean ([1]; 1 hour): 12.2 mm Hg
- Intraocular pressure, mean ([1]; 2 hours): 13.3 mm Hg
- Intraocular pressure, mean ([1]; 4 hours): 14.2 mm Hg
- Intraocular pressure, mean ([1]; 8 hours): 15.2 mm Hg
- Intraocular pressure, mean ([1]; time 0 (baseline)): 16.0 mm Hg
- Amount of unchanged product in the receiving compartment (permeability rate) ([2]; 40 min): 0.0 nmol
- Amount of unchanged product in the receiving compartment (permeability rate) ([2]; 80 min): 1.3 nmol
- Amount of unchanged product in the receiving compartment (permeability rate) ([2]; 120 min): 4.1 nmol
- Amount of unchanged product in the receiving compartment (permeability rate) ([2]; 160 min): 23.5 nmol
- Release of epinephrine inside the eye [2]: epinephrine is released inside the eye
- Ocular pressure ([3]; left eye, 0 min (baseline)): 26 mmHg and 25 mmHg
- Ocular pressure ([3]; left eye, 30 min): 25 mmHg and 23 mmHg
- Ocular pressure ([3]; left eye, 120 min): 20 mmHg and 22 mmHg
- Ocular pressure ([3]; left eye, 180 min): 22 mmHg and 24 mmHg and 25 mmHg
- Ocular pressure ([3]; right eye, 0 min (baseline)): 27 mmHg and 24 mmHg and 23 mmHg
- Ocular pressure ([3]; right eye, 30 min): 24 mmHg and 23 mmHg and 25 mmHg
- Ocular pressure ([3]; right eye, 120 min): 22 mmHg and 21 mmHg and 23 mmHg
- Ocular pressure ([3]; right eye, 180 min): 23 mmHg and 22 mmHg and 24 mmHg
- Ocular pressure, mean ([3]; left eye, 0 min (baseline)): 25.8 mmHg
- Ocular pressure, mean ([3]; left eye, 30 min): 24.5 mmHg
- Ocular pressure, mean ([3]; left eye, 120 min): 21.5 mmHg
- Ocular pressure, mean ([3]; left eye, 180 min): 23.8 mmHg
- Ocular pressure, mean ([3]; right eye, 0 min (baseline)): 25.3 mmHg
- Ocular pressure, mean ([3]; right eye, 30 min): 24.0 mmHg
- Ocular pressure, mean ([3]; right eye, 120 min): 22.3 mmHg
- Ocular pressure, mean ([3]; right eye, 180 min): 23.3 mmHg

SMILES: CNCC(O)c1ccc(OC(=O)N(C)C)c(OC(=O)C(C)C)c1.Cl (centres unmarked) [2B852, 3-O-Isobutyryl-4-O-(N,N-Dimethylcarbamoyl)adrenaline Hydrochloride]
- Intraocular pressure ([1]; 1 hour): 12 mm Hg and 13 mm Hg and 11 mm Hg
- Intraocular pressure ([1]; 2 hours): 13 mm Hg and 14 mm Hg
- Intraocular pressure ([1]; 4 hours): 14 mm Hg and 15 mm Hg
- Intraocular pressure ([1]; 8 hours): 16 mm Hg and 15 mm Hg and 14 mm Hg
- Intraocular pressure ([1]; time 0 (baseline)): 15 mm Hg and 16 mm Hg
- Intraocular pressure, mean ([1]; 1 hour): 11.8 mm Hg
- Intraocular pressure, mean ([1]; 2 hours): 13.5 mm Hg
- Intraocular pressure, mean ([1]; 4 hours): 14.3 mm Hg
- Intraocular pressure, mean ([1]; 8 hours): 15.3 mm Hg
- Intraocular pressure, mean ([1]; time 0 (baseline)): 15.7 mm Hg
- Amount of unchanged product in the receiving compartment (permeability rate) ([2]; 40 min): 0.0 nmol
- Amount of unchanged product in the receiving compartment (permeability rate) ([2]; 80 min): 0.0 nmol
- Amount of unchanged product in the receiving compartment (permeability rate) ([2]; 120 min): 0.0 nmol
- Amount of unchanged product in the receiving compartment (permeability rate) ([2]; 160 min): 0.0 nmol
- Release of epinephrine inside the eye [2]: epinephrine is released inside the eye
- Ocular pressure ([3]; left eye, 0 min (baseline)): 27 mmHg and 26 mmHg
- Ocular pressure ([3]; left eye, 30 min): 26 mmHg and 24 mmHg and 25 mmHg
- Ocular pressure ([3]; left eye, 120 min): 24 mmHg and 22 mmHg and 25 mmHg
- Ocular pressure ([3]; left eye, 180 min): 23 mmHg and 25 mmHg
- Ocular pressure ([3]; right eye, 0 min (baseline)): 26 mmHg and 25 mmHg and 24 mmHg and 28 mmHg
- Ocular pressure ([3]; right eye, 30 min): 25 mmHg and 24 mmHg and 23 mmHg and 26 mmHg
- Ocular pressure ([3]; right eye, 120 min): 23 mmHg and 22 mmHg and 24 mmHg
- Ocular pressure ([3]; right eye, 180 min): 25 mmHg and 22 mmHg and 23 mmHg and 24 mmHg
- Ocular pressure, mean ([3]; left eye, 0 min (baseline)): 26.5 mmHg
- Ocular pressure, mean ([3]; left eye, 30 min): 25.3 mmHg
- Ocular pressure, mean ([3]; left eye, 120 min): 23.8 mmHg
- Ocular pressure, mean ([3]; left eye, 180 min): 23.8 mmHg
- Ocular pressure, mean ([3]; right eye, 0 min (baseline)): 25.8 mmHg
- Ocular pressure, mean ([3]; right eye, 30 min): 24.0 mmHg
- Ocular pressure, mean ([3]; right eye, 120 min): 23.0 mmHg
- Ocular pressure, mean ([3]; right eye, 180 min): 23.5 mmHg

SMILES: CNC[C@H](O)c1ccc(O)c(O)c1 [EPINEPHRINE, epinephrine, reference compound]
- Amount of epinephrine released by 2B223 in the receiving compartment ([2]; 40 min): 15.8 nmol
- Amount of epinephrine released by 2B223 in the receiving compartment ([2]; 80 min): 21.7 nmol
- Amount of epinephrine released by 2B223 in the receiving compartment ([2]; 120 min): 23.4 nmol
- Amount of epinephrine released by 2B223 in the receiving compartment ([2]; 160 min): 26.2 nmol
- Amount of epinephrine released by 2B852 in the receiving compartment ([2]; 40 min): 14.5 nmol
- Amount of epinephrine released by 2B852 in the receiving compartment ([2]; 80 min): 23.7 nmol
- Amount of epinephrine released by 2B852 in the receiving compartment ([2]; 120 min): 28.9 nmol
- Amount of epinephrine released by 2B852 in the receiving compartment ([2]; 160 min): 32.0 nmol
- Permeation of cornea barrier [4]: does not permeate cornea barrier
